Laboratory results reported in patent US5686486A, “4-hydroxy-benzopyran-2-ones and 4-hydroxy-cycloalkyl[b]pyran-2-ones useful to treat retroviral infections” (priority 1995, dated 1997).
Structures can show the parent of a compound that is named as a salt.

Legend:
HIV-1 protease [1] = biological target: T1, HIV-1 protease (Human immunodeficiency virus type 1 group M subtype B, UniProt P04585); assay: biochemical; conditions: read-out: HIV-1 FITC KI
Outline: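 Enzyme (40 nM stock) and substrate (200 μM stock) incubated with inhibitor, 24–48 two-fold serial concentrations, for 90 min at room temperature, then quenched with avidin beads. Nonlinear least-squares analysis gives Ki; a known-Ki inhibitor validates each run.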

HIV-1 protease [2] = biological target: T1, HIV-1 protease; assay: biochemical; conditions: for inhibition at 0.37 µM: read-out: HIV-1 Protease % Inhib, dose 0.370 uM; for inhibition at 1.1 µM: read-out: HIV-1 Protease % Inhib, dose 1.100 uM; for inhibition at 3.3 µM: read-out: HIV-1 Protease % Inhib, dose 3.300 uM; for inhibition at 10 µM: read-out: HIV-1 Protease % Inhib, dose 10.000 uM; for inhibition at 30 µM: read-out: HIV-1 Protease % Inhib, dose 30.000 uM; for inhibition at 0.123 µM: read-out: HIV-1 Protease % Inhib, dose 0.123 uM
Outline: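 Percent inhibition derived from fluorescent cleavage product separated by filtration after streptavidin-bead capture of intact biotin/FITC substrate. Reaction: enzyme (10 μl, 0.1 μM stock) with substrate (20 μl, 0.2 μM stock) and compound, 1 h at room temperature in dark, pH 5.5 acetate buffer with 1.0 M NaCl and 0.05% NP-40.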

Row | Structure (SMILES) | Ki (HIV-1 protease [1]) | inhibition at 0.37 µM (HIV-1 protease [2]) | inhibition at 1.1 µM (HIV-1 protease [2]) | inhibition at 3.3 µM (HIV-1 protease [2]) | inhibition at 10 µM (HIV-1 protease [2]) | inhibition at 30 µM (HIV-1 protease [2]) | inhibition at 0.123 µM (HIV-1 protease [2]) | HIV-1 Protease % Inhib (HIV-1 protease [2]; dose 0.123 uM) | HIV-1 Protease % Inhib (HIV-1 protease [2]; dose 0.370 uM) | HIV-1 Protease % Inhib (HIV-1 protease [2]; dose 1.100 uM) | HIV-1 Protease % Inhib (HIV-1 protease [2]; dose 3.300 uM) | HIV-1 Protease % Inhib (HIV-1 protease [2]; dose 10.000 uM) | HIV-1 Protease % Inhib (HIV-1 protease [2]; dose 30.000 uM)
1 | O=C(NCc1ccc(C(c2c(O)c3c(oc2=O)CCCCCC3)C2CC2)s1)OCc1ccccc1 (stereo not drawn) [Example 389, 3-(α-Cyclopropyl (5-(N-carbobenzoxy)aminomethyl)thien-2-ylmethyl)-4-hydroxy-5,6,7,8,9,10-hexahydrocycloocta[b]pyran-2-one] | 46.2 nM | 21.1% | 58% | 78.7% | 96.4% | 98.7% | – | – | – | – | – | – | –
2 | Cc1sc(C(c2c(O)c3c(oc2=O)CCCCCC3)C2CC2)cc1CO (stereo not drawn) [Example 394] | 6.04 nM | 102% | 109% | 115% | 120% | 123% | 72.7% | – | – | – | – | – | –
3 | O=c1oc2c(c(O)c1C(c1cccc(NS(=O)(=O)Nc3ccccc3)c1)C1CC1)CCCCCC2 (stereo not drawn) [Example 397] | 7.3 nM | 92.9% | 105% | 109% | 116% | 113% | 35.7% | – | – | – | – | – | –
4 | CN(C)S(=O)(=O)Nc1cccc(C(c2c(O)c3c(oc2=O)CCCCCC3)C2CC2)c1 (stereo not drawn) [Example 398, N'-[3-[cyclopropyl(5,6,7,8,9,10-hexahydro4-hydroxy-2-oxo-2H-cycloocta[b]pyran-3-yl)methyl]phenyl]-N,N-dimethyl-sulfamide] | 41.5 nM | 40.9% | 74.2% | 91.5% | 105% | 105% | 10.5% | – | – | – | – | – | –
5 | CN1CCN(S(=O)(=O)Nc2cccc(C(c3c(O)c4c(oc3=O)CCCCCC4)C3CC3)c2)CC1 (stereo not drawn) [Example 399, N-[3-[Cyclopropyl(5,6,7,8,9,10-hexahydro-4-hydroxy-2-oxo-2H-cycloocta[b]pyran-3-yl)methyl]phenyl]4-methyl-1-piperazinesulfonamide] | 186 nM | 21.6% | 54.1% | – | – | – | – | – | – | – | – | – | –
6 | O=c1oc2c(c(O)c1C(c1cccc(S(=O)(=O)Nc3ccccc3)c1)C1CC1)CCCCCC2 (stereo not drawn) [Example 400, N-Phenyl-3-[cyclopropyl(5,6,7,8,9, 10-hexahydro-4-hydroxy-2-oxo-2H-cycloocta[b]pyran-3-yl)methyl]-benzenesulfonamide] | 35.8 nM | 54.8% | 78.7% | 94.7% | 114% | 109% | 17.4% | – | – | – | – | – | –
7 | N#Cc1ccc(S(=O)(=O)Nc2cccc(C(c3c(O)c4c(oc3=O)CCCCCC4)C3CC3)c2)cc1 (stereo not drawn) [Example 402, Sodium Salt of 4-Cyano-N-[3-[cyclopropyl(5,6,7,8,9,10-hexahydro4-hydroxy-2-oxo-2H-cycloocta[b]pyran-3-yl)methyl]phenyl]-benzenesulfonamide] | 0.62 nM | – | – | – | – | – | – | 103.69% | 106.4% | 110.07% | 100.22% | 98.03% | 98.47%
8 | O=c1oc2c(c(O)c1C(c1cccc(NS(=O)(=O)c3ccc(CBr)cc3)c1)C1CC1)CCCCCC2 (stereo not drawn) [Example 403, 4-(Bromomethyl)-N-[3-[cyclopropyl(5,6,7,8,9,10-hexahydro-4-hydroxy-2-oxo-2H-cycloocta[b]pyran-3-yl)methyl]phenyl]-benzenesulfonamide] | 5 nM | 77.5% | 92.9% | 94.8% | 95.6% | 97% | 41.6% | – | – | – | – | – | –
9 | O=c1oc2c(c(O)c1[C@H](c1cccc(NS(=O)(=O)c3ccc(S(=O)(=O)c4ccccc4)s3)c1)C1CC1)CCCCCC2 [Example 404] | 2.87 nM | 85.3% | 103% | 108% | 106% | 103% | 58.3% | – | – | – | – | – | –
10 | O=c1oc2c(c(O)c1C(c1cccc(NS(=O)(=O)c3cccc(O)c3)c1)C1CC1)CCCCCC2 (stereo not drawn) [Example 405, N-[3-[Cyclopropyl(5,6,7,8,9,10-hexahydro-4-hydroxy-2-oxo-2H-cycloocta[b]pyran-3-yl)methyl]phenyl]-3-hydroxy-benzenesulfonamide] | 3.13 nM | 88.6% | 101% | 106% | 101% | 77.2% | 46.5% | – | – | – | – | – | –
11 | O=c1oc2c(c(O)c1C(c1cccc(NS(=O)(=O)c3ccc(O)cc3)c1)C1CC1)CCCCCC2 (stereo not drawn) [Example 407, N-[3-[Cyclopropyl(5,6,7,8,9,10-hexahydro-4-hydroxy-2-oxo-2H-cycloocta[b]pyran-3-yl)methyl]phenyl]-4-hydroxy-benzenesulfonamide] | 6.6 nM | 74.7% | 91.2% | 98.1% | 107% | 113% | 26.8% | – | – | – | – | – | –
12 | O=C(COCc1ccccc1)Nc1cccc(S(=O)(=O)Nc2cccc(C(c3c(O)c4c(oc3=O)CCCCCC4)C3CC3)c2)c1 (stereo not drawn) [Example 408, 3-(Benzyloxyacetylamino)-N-[3-[cyclopropyl(5,6,7,8,9,10-hexahydro-4-hydroxy-2-oxo-2H-cycloocta[b]pyran-3-yl)methyl]phenyl]-benzenesulfonamide] | 14 nM | 70.1% | 88.9% | 98.5% | 91.7% | 107% | 38.4% | – | – | – | – | – | –
13 | O=C(CO)Nc1cccc(S(=O)(=O)Nc2cccc(C(c3c(O)c4c(oc3=O)CCCCCC4)C3CC3)c2)c1 (stereo not drawn) [Example 409, 3-(Hydroxyacetylamino)-N-[3-[cyclopropyl(5,6,7,8,9,10-hexahydro4-hydroxy-2-oxo-2H-cycloocta[b]pyran-3-yl)methyl]phenyl]-benzenesulfonamide] | 3.3 nM | 90.5% | 102% | 103% | 101% | 108% | 65.1% | – | – | – | – | – | –
14 | O=c1oc2c(c(O)c1C(c1cccc(NS(=O)(=O)c3cccc(S(=O)(=O)N4CCOCC4)c3)c1)C1CC1)CCCCCC2 (stereo not drawn) [Example 411, N-[3-[Cyclopropyl(5,6,7,8,9,10-hexahydro-4-hydroxy-2-oxo-2H-cycloocta[b]pyran-3-yl)-methyl]phenyl]-(3-N-morpholinebenzenesulfonyl)benzenesulfonamide] | 2.5 nM | 79.4% | 98.5% | 104% | 107% | 106% | 71.1% | – | – | – | – | – | –
15 | O=c1oc2c(c(O)c1C(c1cccc(NS(=O)(=O)c3cccc(S(=O)(=O)NCc4ccccc4)c3)c1)C1CC1)CCCCCC2 (stereo not drawn) [Example 412, N-[3-[Cyclopropyl(5,6,7,8,9,10-hexahydro-4-hydroxy-2-oxo-2H-cycloocta[b]pyran-3-yl)-methyl]phenyl]-(3-N-benzylbenzenesulfonyl)benzenesulfonamide] | 9.2 nM | 69.2% | 92% | 102% | 99% | 102% | 37.8% | – | – | – | – | – | –
16 | O=c1oc2c(c(O)c1C(c1cccc(NS(=O)(=O)c3cccc(S(=O)(=O)N(Cc4ccccc4)Cc4ccccc4)c3)c1)C1CC1)CCCCCC2 (stereo not drawn) [Example 413, N-[3-[Cyclopropyl(5,6,7,8,9,10-hexahydro-4-hydroxy-2-oxo-2H-cycloocta[b]pyran-3-yl)-methyl]phenyl]-(3-N,N-dibenzylbenzenesulfonyl)benzenesulfonamide] | 104 nM | 17.4% | 43.1% | 77.7% | 95.2% | 92.7% | – | – | – | – | – | – | –
17 | COCCOCCOCCOc1ccc(S(=O)(=O)Nc2cccc(C(c3c(O)c4c(oc3=O)CCCCCC4)C3CC3)c2)cc1 (stereo not drawn) [Example 415, Benzenesulfonamide, N-[3-[cyclopropyl(5,6,7,8,9,10-hexahydro-4-hydroxy-2-oxo-2H-cycloocta[b]pyran-3-yl)methyl]phenyl]-4-[2-[2-(2-methoxyethoxy)ethoxy]ethoxy]-] | 2.3 nM | 121% | 128% | 124% | 125% | 120% | 126% | – | – | – | – | – | –
18 | CC(C)CC(c1cccc(NS(=O)(=O)c2ccc(C#N)cc2)c1)c1c(O)c2c(oc1=O)CCCCCC2 (stereo not drawn) [Example 426, Benzenesulfonamide, 4-cyano-N-[3-[1-(5,6,7,8,9,10-hexahydro-4-hydroxy-2-oxo-2H-cycloocta[b]pyran-3-yl)-3-methylbutyl]phenyl]-] | 1.48 nM | 117% | 109% | 102% | 102% | 106% | 102% | – | – | – | – | – | –
